From patent US8445510B2, “Fused bicyclic kinase inhibitors” (OSI Pharmaceuticals, LLC, priority 2011, dated 2013)

How the values were obtained:
Aurora B = biological target: T1, Aurora B (Homo sapiens, UniProt Q96GD4); assay: Aurora B cell mechanistic assay (HT-29), phospho-Histone H3 (Ser10) ELISA; format: cell-based; settings: HT-29 cell line; inhibition of phospho-Histone H3 (Ser10); at least duplicate experiments (italicized if single experiment); read-out: Aurora B mech IC50
T1 construct: HT-29 cells grown in complete growth media
Summary of the method: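 HT-29 cells treated 1 h at 37 °C with serially diluted compound, then 100 nM Calyculin A added for 30 min. Lysates assayed by phospho-Histone H3 (Ser10) ELISA at 450 nm; normalized to DMSO (100%) and a reference Aurora B inhibitor (full inhibition); IC50 by four-parameter fit.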

Karpas-299 cells = assay: Karpas-299 cell proliferation assay (CellTiter-Glo); format: cell-based; settings: Homo sapiens, 72 h; Karpas-299 cell line (NPM-ALK); 3 days incubation; at least duplicate experiments; read-out: Prolif. IC50

T1 sequence (Q96GD4 whole entry): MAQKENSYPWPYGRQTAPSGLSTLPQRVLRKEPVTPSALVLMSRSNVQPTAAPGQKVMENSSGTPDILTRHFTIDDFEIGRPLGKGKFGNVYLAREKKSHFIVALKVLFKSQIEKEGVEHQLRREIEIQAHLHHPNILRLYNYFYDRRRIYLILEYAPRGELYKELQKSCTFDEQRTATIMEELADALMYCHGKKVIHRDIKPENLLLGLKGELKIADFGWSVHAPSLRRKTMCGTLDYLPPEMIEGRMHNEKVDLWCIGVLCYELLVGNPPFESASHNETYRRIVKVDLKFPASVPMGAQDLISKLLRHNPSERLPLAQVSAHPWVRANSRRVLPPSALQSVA

IC50 (Aurora B) [nM]	IC50 (Karpas-299 cells) [nM]	Compound
> 1000	≤ 50	CNC(=O)[C@H]1CC[C@H](n2nc(C)c(-c3cnc4[nH]cc([C@H](C)c5c(OC)ccc(F)c5Cl)c4c3)c2C)CC1 [Example 24, trans-4-(4-{3-[(1S)-1-(2-Chloro-3-fluoro-6-methoxyphenyl)ethyl]-1H-pyrrolo[2,3-b]pyridin-5-yl}-3,5-dimethyl-1H-pyrazol-1-yl)-N-methylcyclohexanecarboxamide]
50 to 200	≤ 50	COc1ccc(F)c(Cl)c1[C@@H](C)c1c[nH]c2ncc(-c3cn([C@H]4CC[C@H](C(=O)N(C)C)CC4)nc3C)cc12 [Example 23, trans-4-(4-{3-[(1S)-1-(2-chloro-3-fluoro-6-methoxyphenyl)ethyl]-1H-pyrrolo[2,3-b]pyridin-5-yl}-3-methyl-1H-pyrazol-1-yl)-N,N-dimethylcyclohexanecarboxamide]
50 to 200	≤ 50	COc1ccc(F)c(Cl)c1[C@@H](C)c1c[nH]c2ncc(-c3cn([C@H]4CC[C@H](O)CC4)nc3C)cc12 [Example 28, trans-4-(4-{3-[(1S)-1-(2-Chloro-3-fluoro-6-methoxyphenyl)ethyl]-1H-pyrrolo[2,3-b]pyridin-5-yl}-3-methyl-1H-pyrazol-1-yl)cyclohexanol]
